Assay [1] has as its system damping-off fungus (Rhizoctonia solani). As to the kind of experiment: Test Example 16: soybean seed smearing treatment, damping-off pot test (Table 5). The assay is classed as in vivo. Particulars: soybean seeds, 20 days after. As to the method:
(§1) If the effect by the combination of two active ingredients is greater than that of the estimated value E, which is calculated by the Colby's equation as follows, the effect is regarded as synergistic. E=X+Y−X·Y/100 wherein, E=Control value when using the mixture of the active ingredients A and B at the concentrations m and n (amount of the active ingredient), respectively.
(§2) X=Control value when using the active ingredient A at the concentration m (amount of the active ingredient).
(§3) Y=Control value when using the active ingredient B at the concentration n (amount of the active ingredient).
In a rotary seed treatment machine (trade name: HEGE11, manufactured by WINTERSTEIGER), soybean seeds (variety:“Hatayutaka”) were treated by smearing treatment using azoxystrobin flowable formulation (25% flowable formulation, trade name: Amistar, Syngenta), trifloxystrobin flowable formulation (25% flowable formulation, trade name: FLINT, Bayer CropScience), a chemical liquid prepared by diluting picoxystrobin in acetone/Tween 20 (weight ratio=95:5) and diluting with water, a chemical liquid prepared by dissolving mandestrobin in acetone/Tween 20 (weight ratio=95:5) and diluting with water, and the flowable formulation obtained of the present bacterial strain in Formulation Example 16, so that the soybean seeds retain the bacteria and the compound in the amount shown in Table 5.
Cultivation was carried out in a greenhouse under irrigation. Also, similar procedures were conducted using untreated soybean seeds, instead of the treated soybean seeds, as described above for the treated compartment (“untreated compartment”). The plants were investigated 20 days after for the number of diseased plants, and the disease incidence was calculated by the following “Equation 1”. The control value of the treated compartment was calculated by the following equation “Equation 2”, based on the disease incidences of the treated compartment and the untreated compartment. Disease incidence (%)=100×(number of diseased plant/total number of seeded seeds): Equation 1 Control value (%)=100×[(disease incidence in untreated compartment−disease incidence in treated compartment)/disease incidence in untreated compartment]: Equation 2

The test system of assay [2] is damping-off fungus (Fusarium spp.). As to the kind of experiment: Test Example 15: corn seed smearing treatment, damping-off pot test (Table 4). The assay is classed as in vivo. The note with it: corn seeds, 20 days after. As for the experimental part:
In a rotary seed treatment machine (trade name: HEGE11, manufactured by WINTERSTEIGER), corn seeds (variety: yellow dent corn) were treated by smearing treatment using pyraclostrobin flowable formulation (20% wettable granules, trade name: Comet, BASF. Corporation), a chemical liquid prepared by dissolving fluoxastrobin in acetone/Tween 20 (weight ratio=95:5) and diluting with water, and the flowable formulation of the present bacterial strain obtained in Formulation Example 16, respectively, so that the corn seeds retain the present bacterial strain and the compound in the amount shown in Table 4.
Cultivation was carried out in a greenhouse under irrigation. Also, similar procedures were conducted using untreated corn seeds, instead of the treated corn seeds, as described above for the treated compartment (“untreated compartment”). The plants were investigated 20 days after for the number of diseased plants, and the disease incidence was calculated by the following “Equation 1”. The control value of the treated compartment was calculated by the following equation “Equation 2”, based on the disease incidences of the treated compartment and the untreated compartment. Disease incidence (%)=100×(number of diseased plant/total number of seeded seeds): Equation 1 Control value (%)=100×[(disease incidence in […] in treated compartment)/disease incidence in untreated compartment]: Equation 2
as §1, §2, §3

With `CO/C=C(/C(=O)OC)c1ccccc1Oc1cc(Oc2ccccc2C#N)ncn1` [Azoxystrobin], the “Controlling Effect (control value)” value in assay [1] (0.005 g/Kg seeds) amounted to 15.9%; in assay [1] (0.01 g/Kg seeds), 29.5%; in assay [1] (0.02 g/Kg seeds) it was 38.6%.

For the molecule `CO/N=C(/C1=NOCCO1)c1ccccc1Oc1ncnc(Oc2ccccc2Cl)c1F` [Fluoxastrobin], the “Controlling Effect (control value)” value was 14.0% in assay [2] (0.05 g/Kg seeds), 30.2% in assay [2] (0.1 g/Kg seeds) and 41.9% in assay [2] (0.2 g/Kg seeds).

In the case of `CNC(=O)C(OC)c1ccccc1COc1cc(C)ccc1C` (stereo not drawn) [Mandestrobin], the “Controlling Effect (control value)” value in assay [1] (0.025 g/Kg seeds) is on record as 25.0%; in assay [1] (0.05 g/Kg seeds), 36.4%; in assay [1] (0.1 g/Kg seeds) it was 47.7%.

For the molecule `CO/C=C(/C(=O)OC)c1ccccc1COc1cccc(C(F)(F)F)n1` [Picoxystrobin], the “Controlling Effect (control value)” value in assay [1] (0.002 g/Kg seeds) was 18.2%; in assay [1] (0.01 g/Kg seeds), 27.3%; in assay [1] (0.05 g/Kg seeds), 38.6%.

As for `COC(=O)N(OC)c1ccccc1COc1ccn(-c2ccc(Cl)cc2)n1` [Pyraclostrobin], the “Controlling Effect (control value)” value was 18.6% in assay [2] (0.025 g/Kg seeds), 25.6% in assay [2] (0.05 g/Kg seeds) and 37.2% in assay [2] (0.1 g/Kg seeds).

In the case of `CON=C(C(=O)OC)c1ccccc1CON=C(C)c1cccc(C(F)(F)F)c1` [Trifloxystrobin], the “Controlling Effect (control value)” value came out at 20.5% in assay [1] (0.002 g/Kg seeds), 31.8% in assay [1] (0.01 g/Kg seeds) and 40.9% in assay [1] (0.05 g/Kg seeds).

Values taken from US10575528B2, “Plant disease control composition and plant disease control method” (SUMITOMO CHEMICAL COMPANY, LIMITED, priority 2015, dated 2020).
